From patent US20240174674A1, “NITROGEN-CONTAINING POLYCYCLIC FUSED RING COMPOUND, PHARMACEUTICAL COMPOSITION THEREOF, PREPARATION METHOD THEREFOR, AND USE THEREOF” (APPLIED PHARMACEUTICAL SCIENCE, INC., priority 2021, published 2024)

Molecular target: RET G810R (Homo sapiens (Human), UniProt P07949, G810R)
Test: HTRF KinEASE-TK kinase activity test, RET G810R
Details: not given

Chain of RET G810R (P07949 29-1114 G810R): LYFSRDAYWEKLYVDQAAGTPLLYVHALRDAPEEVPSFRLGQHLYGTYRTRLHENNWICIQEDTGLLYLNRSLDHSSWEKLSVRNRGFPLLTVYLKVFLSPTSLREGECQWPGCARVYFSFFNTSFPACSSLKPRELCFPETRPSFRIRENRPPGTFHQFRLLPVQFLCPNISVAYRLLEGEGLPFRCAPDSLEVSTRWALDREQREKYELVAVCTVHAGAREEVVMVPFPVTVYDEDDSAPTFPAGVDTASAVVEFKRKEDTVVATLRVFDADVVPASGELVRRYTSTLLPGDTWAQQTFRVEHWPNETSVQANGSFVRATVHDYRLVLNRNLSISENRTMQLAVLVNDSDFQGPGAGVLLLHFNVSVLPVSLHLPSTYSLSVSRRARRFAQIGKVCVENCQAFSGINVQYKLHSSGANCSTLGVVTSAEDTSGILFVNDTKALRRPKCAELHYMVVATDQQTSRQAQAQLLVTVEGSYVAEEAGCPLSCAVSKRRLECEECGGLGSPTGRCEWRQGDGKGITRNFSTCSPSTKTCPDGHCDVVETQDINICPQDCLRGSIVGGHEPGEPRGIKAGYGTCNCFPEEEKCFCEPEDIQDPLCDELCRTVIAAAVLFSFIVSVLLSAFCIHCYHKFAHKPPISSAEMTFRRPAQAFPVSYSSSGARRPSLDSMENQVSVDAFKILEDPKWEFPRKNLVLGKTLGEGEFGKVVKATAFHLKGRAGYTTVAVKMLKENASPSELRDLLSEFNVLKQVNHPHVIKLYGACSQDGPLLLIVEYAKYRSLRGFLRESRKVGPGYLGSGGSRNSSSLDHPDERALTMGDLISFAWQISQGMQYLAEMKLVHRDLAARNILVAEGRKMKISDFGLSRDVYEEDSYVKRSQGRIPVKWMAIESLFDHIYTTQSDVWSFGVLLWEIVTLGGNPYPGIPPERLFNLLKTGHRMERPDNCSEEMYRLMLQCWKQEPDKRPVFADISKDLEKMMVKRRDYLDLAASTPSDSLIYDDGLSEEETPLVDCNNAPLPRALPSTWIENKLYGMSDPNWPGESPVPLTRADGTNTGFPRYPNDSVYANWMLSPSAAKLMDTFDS

IC50 [nM] | Structure (SMILES)
4.6 | CCOc1cc(-c2cnc(N3CCC(C)(NC(=O)c4ncccc4Cl)CC3)cn2)c2c3cn[nH]c3nn2c1 [Compound 59, 3-chloro-N-(1-(5-(6-ethoxy-1H-pyrazolo[3′,4′:3,4]pyrazolo[1,5-α]pyridin-4-yl)pyrazin-2-yl)-4-methylpiperidin-4-yl)-2-picolinamide]
9.6 | CCOc1cc(-c2ccc(N3CC4CC(C3)N4Cc3ccc(OC)nc3)nc2)c2c3cc[nH]c3nn2c1 [Compound 297, 6-ethoxy-4-(6-(6-((6-methoxypyridin-3-yl)methyl)-3,6-diazabicyclo[3.1.1]heptan-3-yl)pyridin-3-yl)-1H-pyrrolo[2′,3′:3,4]pyrazolo[1,5-α]pyridine]
14.5 | CCOc1cc(-c2ccc(N3CC[C@H](NCc4c(F)cccc4Cl)[C@@H](O)C3)nc2)c2c3cn[nH]c3nn2c1 [Compound 107, (3S,4S)-4-((2-chloro-6-fluorobenzyl)amino)-1-(5-(6-ethoxy-1H-pyrazolo[3′,4′:3,4]pyrazolo[1,5-α ]pyridin-4-yl)pyridin-2-yl)piperidin-3-ol]

Same assay, conditions: fold versus selpercatinib (LOXO-292)

inhibitory activity against RET G810R relative to that of selpercatinib (LOXO-292) [times] | Structure (SMILES)
≥ 10 | CCOc1cc(-c2ccc(N3CC[C@H](NS(=O)(=O)c4c(F)cccc4F)[C@H](O)C3)nc2)c2c3cn[nH]c3nn2c1 [Compound 269, N-((3R,4S)-1-(5-(6-ethoxy-1H-pyrazolo[3′,4′:3,4]pyrazolo[1,5-α]pyridin-4-yl)pyridin-2-yl)-3-hydroxypiperidin-4-yl)-2,6-difluorobenzenesulfonamide]
≥ 10 | CCOc1cc(-c2ccc(N3CC[C@H](NC(=O)C4(C(F)(F)F)CCC4)[C@H](O)C3)nc2)c2c3cn[nH]c3nn2c1 [Compound 281, N-((3R,4S)-1-(5-(6-ethoxy-1H-pyrazolo[3′,4′:3,4]pyrazolo[1,5-α]pyridin-4-yl)pyridin-2-yl)-3-hydroxypiperidin-4-yl)-1-(trifluoromethyl)cyclobutane-1-carboxamide]

Structure (SMILES) | inhibitory activity against RET G810R relative to that of selpercatinib (LOXO-292) [times]
COc1cc(-c2ccc(N3CC4CC(C3)N4Cc3ccc(OC)nc3)nc2)c2c3cn[nH]c3nn2c1 [Compound 235] | ≥ 10

Same assay, conditions: read-out: RET G810R IC50; HTRF kinase assay

IC50 [nM] | Structure (SMILES)
27.3 | CCOc1cc(-c2ccc(N3C[C@@H]4[C@H](C3)[C@H]4NC(=O)c3c(F)cccc3Cl)nc2)c2c3cn[nH]c3nn2c1 [Compound 170, 2-chloro-N-((1R,5S,6S)-3-(5-(6-ethoxy-1H-pyrazolo[3′,4′:3,4]pyrazolo[1,5-α]pyridin-4-yl)pyridin-2-yl)-3-azabicyclo[3.1.0]hexan-6-yl)-6-fluorobenzamide]
8.2 | CCOc1cc(-c2ccc(N3C[C@@H]4[C@H](C3)[C@@H]4NC(=O)c3c(F)cccc3Cl)nc2)c2c3cn[nH]c3nn2c1 [Compound 172, 2-chloro-N-((1R,5S,6R)-3-(5-(6-ethoxy-1H-pyrazolo[3′,4′:3,4]pyrazolo[1,5-α]pyridin-4-yl)pyridin-2-yl)-3-azabicyclo[3.1.0]hexan-6-yl)-6-fluorobenzamide]
9.4 | CCOc1cc(-c2ccc(N3CCC(CO)(C(=O)NCC(C)C)CC3)nc2)c2c3cn[nH]c3nn2c1 [Compound 87, 1-(5-(6-ethoxy-1H-pyrazolo[3′,4′:3,4]pyrazolo[1,5-α]pyridin-4-yl)pyridin-2-yl)-4-(hydroxymethy 1)-N-isobutylpiperidine-4-carboxamide]
6.6 | CCOc1cc(-c2ccc(N3CCC(S(=O)(=O)NC(C)C)CC3)nc2)c2c3cn[nH]c3nn2c1 [Compound 101, 1-(5-(6-ethoxy-1H-pyrazolo[3′,4′:3,4]pyrazolo[1,5-α]pyridin-4-yl)pyridin-2-yl)-N-isopropylpiperidine-4-sulfonamide]
66.4 | CCOc1cc(-c2ccc(N3CCCC4(CCN(Cc5ccc(OC)nc5)CC4)C3)nc2)c2c3cn[nH]c3nn2c1 [Compound 219, 6-ethoxy-4-(6-(9-((6-methoxypyridin-3-yl)methylene)-2,9-diazaspiro[5.5]undecan-2-yl)pyridin-3-yl)-1H-pyrazolo[3′,4′:3,4]pyrazolo[1,5-α]pyridine]
8.2 | CCOc1cc(-c2ccc(N3CC4CCC3CN4Cc3ccc(OC)nc3)nc2)c2c3cn[nH]c3nn2c1 (stereo not drawn) [Compound 160, 6-ethoxy-4-(6-(5-((6-methoxypyridin-3-yl)methyl)-2,5-diazabicyclo[2.2.2]octan-2-yl)pyridin-3-y 1)-1H-pyrazolo[3′,4′:3,4]pyrazolo[1,5-α]pyridine]
16.9 | CCOc1cc(-c2ccc(N3CC4(CCCN4Cc4ccc(OC)nc4)C3)nc2)c2c3cn[nH]c3nn2c1 [Compound 188, 6-ethoxy-4-(6-(5-((6-methoxypyridin-3-yl)methyl)-2,5-diazaspiro[3.4]octan-2-yl)pyridin-3-yl)-1 H-pyrazolo[3′,4′:3,4]pyrazolo[1,5-α]pyridine]
4.4 | CCOc1cc(-c2ccc(N3CCC(CO)(NC(=O)c4cc(F)ccc4F)CC3)nc2)c2c3cn[nH]c3nn2c1 [Compound 150, N-(1-(5-(6-ethoxy-1H-pyrazolo[3′,4′:3,4]pyrazolo[1,5-α]pyridin-4-yl)pyridin-2-yl)-4-(hydroxymethyl)piperidin-4-yl)-2,5-difluorobenzamide]
6.2 | CCOc1cc(-c2ccc(N3CC[C@H](NS(=O)(=O)c4c(F)cccc4F)[C@H](O)C3)nc2)c2c3cn[nH]c3nn2c1 [Compound 269, N-((3R,4S)-1-(5-(6-ethoxy-1H-pyrazolo[3′,4′:3,4]pyrazolo[1,5-α]pyridin-4-yl)pyridin-2-yl)-3-hydroxypiperidin-4-yl)-2,6-difluorobenzenesulfonamide]
47.3 | CCOc1cc(-c2ccc(N3CCC4(CCCN(C(=O)c5c(F)cccc5Cl)C4)CC3)nc2)c2c3cn[nH]c3nn2c1 [Compound 214]
38.1 | CCOc1cc(-c2ccc(N3CCC(CO)(NCc4ccc(OC)nc4)CC3)nc2)c2c3cn[nH]c3nn2c1 [Compound 229, (1-(5-(6-ethoxy-1H-pyrazolo[3′,4′:3,4]pyrazolo[1,5-α]pyridin-4-yl)pyridin-2-yl)-4-(((6-methoxypyridin-3-yl)methyl)amino)piperidin-4-yl)methanol]
16.1 | CCOc1cc(-c2ccc(N3CC4CCC3CN4C(=O)c3c(F)cccc3Cl)nc2)c2c3cn[nH]c3nn2c1 (stereo not drawn) [Compound 159]
10.3 | CCOc1cc(-c2ccc(N3CC[C@H](NC(=O)c4ncccc4F)[C@H](O)C3)nc2)c2c3cn[nH]c3nn2c1 [Compound 286, N-((3R,4S)-1-(5-(6-ethoxy-1H-pyrazolo[3′,4′:3,4]pyrazolo[1,5-α]pyridin-4-yl)pyridin-2-yl)piperidin-3-hydroxypiperidin-4-yl)-3-fluoropicolinamide]
1.5 | CCOc1cc(-c2ccc(N3CC[C@H](NC(=O)C4(C(F)(F)F)CCC4)[C@H](O)C3)nc2)c2c3cn[nH]c3nn2c1 [Compound 281, N-((3R,4S)-1-(5-(6-ethoxy-1H-pyrazolo[3′,4′:3,4]pyrazolo[1,5-α]pyridin-4-yl)pyridin-2-yl)-3-hydroxypiperidin-4-yl)-1-(trifluoromethyl)cyclobutane-1-carboxamide]

Structure (SMILES) | IC50 [nM]
CCOc1cc(-c2ccc(N3CC4CCC(C3)N4C(=O)c3c(F)cccc3Cl)nc2)c2c3cn[nH]c3nn2c1 [Compound 155, (2-chloro-6-fluoro)((1R,5S)-3-(5-(6-ethoxy-1H-pyrazolo[3′,4′:3,4]pyrazolo[1,5-α]pyridin-4-yl)pyridin-2-yl)-3,8-diazabicyclo[3.2.1]octan-8-yl)benzamide] | 14.2
COc1cc(-c2ccc(N3CC4CC(C3)N4Cc3ccc(OC)nc3)nc2)c2c3cn[nH]c3nn2c1 [Compound 235] | 2.2
COC(=O)COc1cc(-c2ccc(N3CC4CC(C3)N4Cc3ccc(OC)nc3)nc2)c2c3cn[nH]c3nn2c1 [Compound 228, Methyl 2-((4-(6-(6-((6-methoxypyridin-3-yl)methylene)-3,6-diazabicyclo[3.1.1]heptan-3-yl)pyridin-3-yl)-1H-pyrazolo[3′,4′:3,4]pyrazolo[1,5-α]pyridin-6-yl)oxy)acetate] | 5.7
COc1ccc(CN2C3CC2CN(c2ccc(-c4cc(C(=O)O)cn5nc6[nH]ncc6c45)cn2)C3)cn1 [Compound 239, 4-(6-(6-((6-methoxypyridin-3-yl)methyl)-3,6-diazabicyclo[3.1.1]heptan-3-yl)pyridin-3-yl)-1H-py razolo[3′,4′:3,4]pyrazolo[1,5-α]pyridine-6-carboxylic acid] | 33.7
